# Source: US6861217B1, “Variation in drug response related to polymorphisms in the β2-adrenergic receptor” (Genaissance Pharmaceuticals, Inc., priority 1998, dated 2005)
# System: patients with asthma
# Assay: bronchodilating response (FEF25-75) to albuterol in patients with asthma by 5′LC genotype
# Assay type: in vivo, human
# Settings: for patients exhibiting a bronchodilating response (increase in FEF25-75 greater than 12%): 180 micrograms aerosolized, 30 minutes
# Description: For this study, 134 patients with asthma were enrolled to determine whether either of the polymorphisms at nucleic acid −47 in the β2AR gene alter the bronchodilating response to β-agonist. The percent (%) change in the forced expiratory flow between 25% and 75% of the forced vital capacity (FEF25-75) was used as a measure of responsiveness. Patients underwent pulmonary function testing to measure FEF25-75 and then received 2 puffs (total of 180 micrograms) of aerosolized albuterol by metered dose inhaler. Thirty minutes later the FEF25-75 measurement was repeated. Based on accepted national standards, an increase in FEF25-75 of greater than 12% was considered a response, while 12% or less was considered no response.
smiles,measurement,setting,value
CC(C)(C)NCC(O)c1ccc(O)c(CO)c1 (stereo not drawn) [albuterol],patients exhibiting a bronchodilating response (increase in FEF25-75 greater than 12%),TT genotype at the 5′LC PS,28.8%
same,odds ratio for having no response,TT genotype versus TC or CC,2.47
same,patients exhibiting a bronchodilating response (increase in FEF25-75 greater than 12%),without TT genotype (TC or CC),71.1%
